Assay results from patent US10239843B2 (CANCER RESEARCH TECHNOLOGY LIMITED, priority 2014, dated 2019).
Like-named read-outs stand apart in the source and are kept apart here.

What was measured:
[1] = test system: PARG in HeLa cell line; assay: PARG cell assay (PAR chain immunofluorescence after MMS); assay type: cell-based; settings: HeLa cells, MMS 50 μg/mL, read-out: PARG Cell IC50 Geomean
Method: This method is based on the detection of endogenous levels of poly (ADP) ribose chains present in the nucleus of HeLa cell line using indirect immunofluorescence. MMS stimulation increases PAR chains for up to 25 mins. After that point, PARG is active and breaks down the PAR chains, until by one hour after stimulation no PAR chains are detectable. Inhibition of PARG maintains PAR chains.
Briefly, following compound treatment and treatment with the DNA damaging agent methylmethanesulfonate (MMS), the cell monolayer is fixed, then permeabilised and incubated with a mouse monoclonal antibody raised against multimers of poly(ADP) ribose.
At the end of the 1 h dosing period, MMS was added to duplicates at a final concentration of 50 μg/mL, for a further hour.
Media was tipped off and the cells fixed with 50 μL ice-cold 95% MetOH/PBS for 15 mins at −20° C. Following a PBS wash, 50 μL PBS/0.1% Triton was added to the cells for 20 mins. Following another PBS wash, anti-PAR antibody (Calbiochem AM80) was diluted 1:4000 in a buffer (PBS+0.5% FBS+0.05% Tween20) and added to the cells and incubated overnight at 4° C.
Cells were washed three times with PBS and the plate sealed with a light-proof seal.

[2] = biological target: Human Full Length PARG (Homo sapiens (Human), UniProt Q86W56); assay: PARG enzyme assay (TR-FRET); assay type: biochemical; settings: read-out: PARG Biochem IC50 Geomean
Sequence of Human Full Length PARG (Q86W56 whole entry): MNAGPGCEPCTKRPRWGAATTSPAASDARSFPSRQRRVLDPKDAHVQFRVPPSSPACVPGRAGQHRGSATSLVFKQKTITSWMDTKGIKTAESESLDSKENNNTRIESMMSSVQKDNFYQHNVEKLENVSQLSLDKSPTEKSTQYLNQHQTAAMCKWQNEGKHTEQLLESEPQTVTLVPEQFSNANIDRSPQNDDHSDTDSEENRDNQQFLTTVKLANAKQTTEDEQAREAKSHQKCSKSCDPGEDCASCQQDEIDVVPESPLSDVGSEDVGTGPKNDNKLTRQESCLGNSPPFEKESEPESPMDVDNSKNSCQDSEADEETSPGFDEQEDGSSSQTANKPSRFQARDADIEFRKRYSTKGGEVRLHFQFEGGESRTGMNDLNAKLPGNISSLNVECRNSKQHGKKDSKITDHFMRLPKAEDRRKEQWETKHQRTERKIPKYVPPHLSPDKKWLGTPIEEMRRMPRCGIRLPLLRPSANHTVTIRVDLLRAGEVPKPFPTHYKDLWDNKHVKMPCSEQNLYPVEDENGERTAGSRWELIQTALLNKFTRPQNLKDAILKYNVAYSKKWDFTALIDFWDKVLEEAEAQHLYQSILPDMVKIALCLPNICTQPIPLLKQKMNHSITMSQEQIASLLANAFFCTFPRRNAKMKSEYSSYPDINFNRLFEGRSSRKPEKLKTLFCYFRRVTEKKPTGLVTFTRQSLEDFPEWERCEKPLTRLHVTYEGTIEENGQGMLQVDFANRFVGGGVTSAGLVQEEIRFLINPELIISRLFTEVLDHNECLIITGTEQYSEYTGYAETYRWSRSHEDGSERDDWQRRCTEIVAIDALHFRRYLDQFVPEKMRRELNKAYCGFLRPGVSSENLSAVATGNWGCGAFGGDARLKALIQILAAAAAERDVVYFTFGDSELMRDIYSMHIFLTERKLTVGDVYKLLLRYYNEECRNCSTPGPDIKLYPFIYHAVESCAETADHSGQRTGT

Row | Structure (SMILES) | IC50 ([1]; Homo sapiens) [nM] | IC50 [2] [nM] | IC50 [1] [nM]
1 | Cc1cc(Cn2nc(C(C)C)c3ccc(S(=O)(=O)NC4(C)CC4)cc3c2=O)on1 [Example 310] | 455 | 307 | –
2 | Cc1cc(Cn2nc(C3CC3)c3ccc(S(=O)(=O)NC4(C)CC4)cc3c2=O)on1 [Example 313] | – | 349 | 420
3 | Cc1cc(Cn2nc(OC3COC3)c3ccc(S(=O)(=O)NC4(C)CC4)cc3c2=O)on1 [Example 317] | – | 487 | 912
4 | Cc1cc(Cn2nc(CC3CC3)c3ccc(S(=O)(=O)NC4(C)CC4)cc3c2=O)on1 [Example 318] | 319 | 352 | –
5 | Cc1cc(Cn2c(=O)c3cc(S(=O)(=O)NC4(C)CC4)ccc3n(CC3CCOCC3)c2=O)on1 [Example 321] | 195 | 138 | –
6 | CC(=O)Cn1c(=O)n(Cc2cc(C)no2)c(=O)c2cc(S(=O)(=O)NC3(C)CC3)ccc21 [Example 323] | 736 | 417 | –
7 | Cc1cc(Cn2c(=O)c3cc(S(=O)(=O)NC4(C)CC4)ccc3n(CC(F)F)c2=O)on1 [Example 324] | 272 | 331 | –
8 | Cc1cc(Cn2c(=O)c3cc(S(=O)(=O)NC4(C)CC4)ccc3n(CC(F)(F)F)c2=O)on1 [Example 325] | 320 | 431 | –
9 | Cn1cc(Cn2c(=O)c3cc(S(=O)(=O)NC4(C)CC4)ccc3n(Cc3cnn(C)c3)c2=O)cn1 [Example 328] | 116 | 48 | –
10 | Cn1cc(Cn2c(=O)c3cc(S(=O)(=O)NC4(C)CC4)ccc3n(CC3(C)CC3(F)F)c2=O)cn1 (centres unmarked) [Example 329] | 129 | 114 | –
11 | Cc1cc(Cn2c(=O)c3cc(S(=O)(=O)NC4(C)CC4)ccc3n(Cc3cnn(C)c3)c2=O)on1 [Example 330] | 164 | 96 | –
12 | CCOC(=O)Cn1c(=O)n(Cc2cc(C)no2)c(=O)c2cc(S(=O)(=O)NC3(C)CC3)ccc21 [Example 332] | 462 | 356 | –
13 | Cn1cc(Cn2c(=O)[nH]c3ccc(S(=O)(=O)NC4(C#N)CC4)cc3c2=O)cn1 [Example 336, N-(1-Cyanocyclopropyl)-3-[(1-methylpyrazol-4-yl)methyl]-2,4-dioxo-1H-quinazoline-6-sulfonamide] | – | 401 | 17900
14 | Cc1cc(Cn2c(=O)c3cc(S(=O)(=O)NC4(C)CC4)ccc3n(CCO)c2=O)on1 [Example 337] | 772 | 417 | –
15 | Cc1cc(Cn2c(=O)c3cc(S(=O)(=O)NC4(C)CC4)ccc3n(C3COC3)c2=O)on1 [Example 339] | 487 | 479 | –
16 | Cc1cc(Cn2c(=O)c3cc(S(=O)(=O)NC4(C)CC4)ccc3n(CC3(CO)COC3)c2=O)on1 [Example 340] | 3480 | 389 | –

Row | Structure (SMILES) | IC50 ([1]; Homo sapiens) [nM] | IC50 [2] [nM] | IC50 [1] [nM]
17 | Cc1cc(Cn2c(=O)c3cc(S(=O)(=O)NC4(C)CC4)ccc3n(CCCN3CCN(C)CC3)c2=O)on1 [Example 342] | 853 | 307 | –
18 | Cn1cc(Cn2c(=O)c3cc(S(=O)(=O)NC4(C)CC4)ccc3n(CC3CCO3)c2=O)cn1 (centres unmarked) [Example 343] | 351 | 195 | –
19 | Cn1cc(Cn2c(=O)c3cc(S(=O)(=O)NC4(C#N)CC4)ccc3n(C)c2=O)cn1 [Example 344] | 2110 | 491 | –
20 | Cc1cc(Cn2c(=O)n(Cc3cnn(C)c3)c(=O)c3cc(S(=O)(=O)NC4(C#N)CC4)ccc32)n(C)n1 [Example 345] | 2880 | 61 | –
21 | Cn1cc(Cn2c(=O)c3cc(S(=O)(=O)NC4(C#N)CC4)ccc3n(CC3CC3)c2=O)cn1 [Example 346] | 390 | 47 | –
22 | CCn1c(=O)n(Cc2cnn(C)c2)c(=O)c2cc(S(=O)(=O)NC3(C#N)CC3)ccc21 [Example 347] | 916 | 210 | –
23 | Cn1cc(Cn2c(=O)c3cc(S(=O)(=O)NC4(C)CC4)ccc3n(CC3(F)COC3)c2=O)cn1 [Example 348] | 328 | 101 | –
24 | Cc1cc(Cn2c(=O)c3cc(S(=O)(=O)NC4(C)CC4)ccc3n(CC3CCO3)c2=O)on1 (centres unmarked) [Example 349] | 632 | 252 | –
25 | Cc1cc(Cn2c(=O)c3cc(S(=O)(=O)NC4(C)CC4)ccc3n(CC3(F)COC3)c2=O)on1 [Example 350] | 341 | 320 | –
26 | Cn1cc(Cn2c(=O)c3cc(S(=O)(=O)NC4(C)CC4)ccc3n(CC3CC(C)(C)O3)c2=O)cn1 (centres unmarked) [Example 351] | 358 | 229 | –
27 | CCc1nn(Cc2cc(C)no2)c(=O)c2cc(S(=O)(=O)NC3(C)CC3)ccc12 [Example 353] | 574 | 408 | –
28 | Cn1cc(Cn2c(=O)c3cc(S(=O)(=O)NC4(C#N)CC4)ccc3n(CC3COC3)c2=O)cn1 [Example 354] | – | 164 | 18000
29 | C#CCn1c(=O)n(Cc2cnn(C)c2)c(=O)c2cc(S(=O)(=O)NC3(C#N)CC3)ccc21 [Example 355] | 953 | 122 | –
30 | Cn1cc(Cn2c(=O)c3cc(S(=O)(=O)NC4(C#N)CC4)ccc3n(CC#N)c2=O)cn1 [Example 356] | 16600 | 396 | –
31 | COCCn1c(=O)n(Cc2cnn(C)c2)c(=O)c2cc(S(=O)(=O)NC3(C#N)CC3)ccc21 [Example 357] | 1600 | 153 | –
32 | Cn1cc(Cn2c(=O)c3cc(S(=O)(=O)NC4(C#N)CC4)ccc3n(Cc3ccc(F)cc3)c2=O)cn1 [Example 358] | 346 | 59 | –

Other lines, results leading:

Row | IC50 ([1]; Homo sapiens) [nM] | IC50 [2] [nM] | IC50 [1] [nM] | Structure (SMILES)
33 | 1100 | 43 | – | Cc1cc(Cn2c(=O)n(Cc3cnn(C)c3)c(=O)c3cc(S(=O)(=O)NC4(C#N)CC4)ccc32)on1 [Example 359]
34 | 1410 | 332 | – | Cc1cc(Cn2c(=O)c3cc(S(=O)(=O)NC4(C)CC4)ccc3n(CC3CCN(C)C3)c2=O)on1 (centres unmarked) [Example 361]
35 | 126 | 331 | – | CSCCn1c(=O)n(Cc2cc(C)no2)c(=O)c2cc(S(=O)(=O)NC3(C)CC3)ccc21 [Example 362]
36 | 382 | 353 | – | Cc1cc(Cn2c(=O)c3cc(S(=O)(=O)NC4(C)CC4)ccc3n(CC3CC(F)(F)C3)c2=O)on1 [Example 363]
37 | 106 | 408 | – | Cc1cc(Cn2c(=O)c3cc(S(=O)(=O)NC4(C)CC4)ccc3n(CC3CC3(F)F)c2=O)on1 (centres unmarked) [Example 364]
38 | 30 | 160 | – | CSCCn1c(=O)n(Cc2cnn(C)c2)c(=O)c2cc(S(=O)(=O)NC3(C)CC3)ccc21 [Example 366]
39 | – | 353 | 340 | CC(=O)Cn1c(=O)n(Cc2cnn(C)c2)c(=O)c2cc(S(=O)(=O)NC3(C)CC3)ccc21 [Example 367]
40 | – | 108 | 217 | Cn1cc(Cn2c(=O)c3cc(S(=O)(=O)NC4(C)CC4)ccc3n(CCC(C)(C)O)c2=O)cn1 [Example 368]
41 | 1110 | 258 | – | Cc1cc(Cn2c(=O)c3cc(S(=O)(=O)NC4(C)CC4)ccc3n(CC3CCN(C)CC3)c2=O)on1 [Example 371]
42 | 2140 | 146 | – | CN1CCC(Cn2c(=O)n(Cc3cnn(C)c3)c(=O)c3cc(S(=O)(=O)NC4(C)CC4)ccc32)CC1 [Example 372]
43 | 14300 | 124 | – | Cn1cc(Cn2c(=O)c3cc(S(=O)(=O)NC4(C#N)CC4)ccc3n(CC3(C)COC3)c2=O)cn1 [Example 376]
44 | 3990 | 96 | – | Cn1cc(Cn2c(=O)c3cc(S(=O)(=O)NC4(C#N)CC4)ccc3n(CC3CCOC3)c2=O)cn1 (centres unmarked) [Example 377]
45 | 1960 | 44 | – | Cn1cc(Cn2c(=O)c3cc(S(=O)(=O)NC4(C#N)CC4)ccc3n(Cc3cnn(C)c3)c2=O)cn1 [Example 378]
46 | 77 | 35 | – | Cc1cc(Cn2c(=O)n(Cc3cnn(C)c3)c(=O)c3cc(S(=O)(=O)NC4(C)CC4)ccc32)on1 [Example 379]
47 | 90 | 59 | – | Cn1cc(Cn2c(=O)c3cc(S(=O)(=O)NC4(C)CC4)ccc3n(CC3CCSCC3)c2=O)cn1 [Example 380]
48 | 208 | 126 | – | Cc1cc(Cn2c(=O)c3cc(S(=O)(=O)NC4(C)CC4)ccc3n(CC3CCSCC3)c2=O)on1 [Example 381]
49 | – | 374 | 974 | Cn1cc(Cn2c(=O)[nH]c3cc(F)c(S(=O)(=O)NC4(C)CC4)cc3c2=O)cn1 [Example 384, 7-Fluoro-N-(1-methylcyclopropyl)-3-[(1-methylpyrazol-4-yl)methyl]-2,4-dioxo-1H-quinazoline-6-sulfonamide]
50 | 184 | 341 | – | Cn1cc(Cn2c(=O)c3cc(S(=O)(=O)NC4(C)CC4)c(F)cc3n(C)c2=O)cn1 [Example 385, 7-Fluoro-1-methyl-N-(1-methylcyclopropyl)-3-[(1-methylpyrazol-4-yl)methyl]-2,4-dioxo-quinazoline-6-sulfonamide]
51 | 8380 | 369 | – | Cc1ncc(Cn2c(=O)[nH]c3ccc(S(=O)(=O)NC4(C#N)CC4)cc3c2=O)s1 [Example 386, N-(1-Cyanocyclopropyl)-3-[(2-methylthiazol-5-yl)methyl]-2,4-dioxo-1H-quinazoline-6-sulfonamide]
52 | 1520 | 452 | – | Cn1cc(Cn2c(=O)[nH]c3cc(F)c(S(=O)(=O)NC4(C#N)CC4)cc3c2=O)cn1 [Example 387, N-(1-Cyanocyclopropyl)-7-fluoro-3-[(1-methylpyrazol-4-yl)methyl]-2,4-dioxo-1H-quinazoline-6-sulfonamide]
